For ten compounds, IC50 results are on record in patent US12552780B2, “Small molecule compound serving as jak kinase inhibitor, and use thereof” (TECHNODERMA MEDICINES, INC., priority 2020, dated 2026).

Common to all, as to type: biochemical
Assay [1] deals with Tyk2 (Homo sapiens, UniProt P29597). Description: Detection of enzyme activity inhibition of JAK kinases (ULight-JAK substrate, Eu-antibody), Tyk2. The settings on record: ATP 10 μM, substrate 50 nM, 1 hour reaction at room temperature, read-out: Tyk2 half-maximum inhibitory concentration (IC50). As to the method:
(§1) Kinase reaction buffer: The kinase reaction buffer was prepared with the following components: 50 mM HEPES, pH 7.5, 1 mM EGTA, 10 mM MgCl2, 2 mM DTT, and 0.01% Tween20. 1× test buffer: A test buffer was prepared, and the 10× test buffer was diluted with deionized water (deionized water: test buffer=9:1) to obtain the 1× test buffer. 4× kinase solution: JAK kinase was diluted with a kinase reaction buffer to a final concentration of 4× (JAK1:80 nM, JAK2/JAK3/Tyk2:4 nM). 4× substrate solution: ULight™-JAK (Tyr1023) substrate was diluted with the kinase reaction buffer to 200 nM (final concentration: 50 nM). 4× ATP solution: ATP was diluted with the kinase reaction buffer to a final concentration of 4× (JAK1:160 μM, JAK2/JAK3/Tyk2: 40 μM). 4× test compound solution: The compounds to be tested were dissolved in DMSO to prepare 10 mM stock solutions, which were diluted to have the desired concentrations through 3-fold gradient dilution, 10 concentrations were set for each compound, and final concentrations of the test compounds ranged from 10 μM to 0.5 nM. 4× enzyme reaction termination solution: EDTA was dissolved in a 1× test buffer to 40 mM (final concentration of EDTA: 10 mM). 4× test antibody solution: Eu-labeled test antibodies (anti-phosphotyrosine (PT66)) were diluted with 1× test buffer to 8 nM (final concentration of the antibodies: 2 nM). 2.5 μL of the 4× kinase solution and 2.5 μL of each of the 4× test compound solutions having different concentrations were added into a 384-well microwell plate sequentially, with 2 duplicate wells set for each concentration, and an enzyme solution blank control group and a negative control group (DMSO group) were also provided. The 384-well plate was oscillated to mix the enzyme and the compound uniformly, centrifuged at 1000 rpm for 1 minute, and incubated at room temperature for 60 minutes. 2.5 μL of the 4× substrate solution was added into the 384-well plate, and centrifuged at 1000 rpm for 1 minute. 2.5 μL of the 4× ATP solution was added into the 384-well plate, and centrifuged at 1000 rpm for 1 minute to start the enzyme reaction. JAK1 reacted at room temperature for 2 hours, and JAK2/JAK3/Tyk2 reacted at room temperature for 1 hour. The final concentration of each component in the JAK1 reaction was: JAK1:20 nM; substrate: 50 nM; and ATP: 40 μM. The final concentrations of the test compounds ranged from 10 μM to 0.5 nM. The final concentration of each component in the JAK2/JAK3/Tyk2 reaction was: JAK2:1 nM; substrate: 50 nM; and ATP: 10 μM. The final concentrations of the test compounds ranged from 10 μM to 0.5 nM. After the enzyme reaction ended, 5 μL of the 4× enzyme reaction termination solution was added into each well of the 384-well plate, centrifuged at 1000 rpm for 1 minute, and incubated at room temperature for 5 minutes. 5 μL of the 4× test antibody solution (final concentration of the test antibodies was 2 nM) was added into each well of the 384-well plate, centrifuged at 1000 rpm for 1 minute, and incubated at room temperature for 1 hour. After incubation of the antibodies, a signal value of each well was measured with Envision plate reader. Assuming that an inhibition rate of the enzyme solution blank control group was 100% and an inhibition rate of the negative control group (DMSO group) was 0%, an inhibition rate corresponding to each concentration was calculated. Nonlinear regression analysis was performed on the concentration logarithm values and corresponding percentage inhibition rates of the test compounds in GraphPad Prism software to obtain the half-maximum inhibitory concentrations (IC50) of the test compounds.

Assay [2] concerns the target JAK1 (Homo sapiens, UniProt P23458). The experiment in a line: Detection of enzyme activity inhibition of JAK kinases (ULight-JAK substrate, Eu-antibody), JAK1. The settings on record: JAK1 20 nM, ATP 40 μM, substrate 50 nM, 2 hours reaction at room temperature, read-out: JAK1 half-maximum inhibitory concentration (IC50). The protocol:
as §1

The target of assay [3] is JAK2 (Homo sapiens, UniProt O60674). Description: Detection of enzyme activity inhibition of JAK kinases (ULight-JAK substrate, Eu-antibody), JAK2. The settings on record: JAK2 1 nM, ATP 10 μM, substrate 50 nM, 1 hour reaction at room temperature, read-out: JAK2 half-maximum inhibitory concentration (IC50). As to the method:
as §1

Assay [4] deals with T1, JAK3 (Homo sapiens, UniProt P52333).
T1 sequence (P52333 1-1124): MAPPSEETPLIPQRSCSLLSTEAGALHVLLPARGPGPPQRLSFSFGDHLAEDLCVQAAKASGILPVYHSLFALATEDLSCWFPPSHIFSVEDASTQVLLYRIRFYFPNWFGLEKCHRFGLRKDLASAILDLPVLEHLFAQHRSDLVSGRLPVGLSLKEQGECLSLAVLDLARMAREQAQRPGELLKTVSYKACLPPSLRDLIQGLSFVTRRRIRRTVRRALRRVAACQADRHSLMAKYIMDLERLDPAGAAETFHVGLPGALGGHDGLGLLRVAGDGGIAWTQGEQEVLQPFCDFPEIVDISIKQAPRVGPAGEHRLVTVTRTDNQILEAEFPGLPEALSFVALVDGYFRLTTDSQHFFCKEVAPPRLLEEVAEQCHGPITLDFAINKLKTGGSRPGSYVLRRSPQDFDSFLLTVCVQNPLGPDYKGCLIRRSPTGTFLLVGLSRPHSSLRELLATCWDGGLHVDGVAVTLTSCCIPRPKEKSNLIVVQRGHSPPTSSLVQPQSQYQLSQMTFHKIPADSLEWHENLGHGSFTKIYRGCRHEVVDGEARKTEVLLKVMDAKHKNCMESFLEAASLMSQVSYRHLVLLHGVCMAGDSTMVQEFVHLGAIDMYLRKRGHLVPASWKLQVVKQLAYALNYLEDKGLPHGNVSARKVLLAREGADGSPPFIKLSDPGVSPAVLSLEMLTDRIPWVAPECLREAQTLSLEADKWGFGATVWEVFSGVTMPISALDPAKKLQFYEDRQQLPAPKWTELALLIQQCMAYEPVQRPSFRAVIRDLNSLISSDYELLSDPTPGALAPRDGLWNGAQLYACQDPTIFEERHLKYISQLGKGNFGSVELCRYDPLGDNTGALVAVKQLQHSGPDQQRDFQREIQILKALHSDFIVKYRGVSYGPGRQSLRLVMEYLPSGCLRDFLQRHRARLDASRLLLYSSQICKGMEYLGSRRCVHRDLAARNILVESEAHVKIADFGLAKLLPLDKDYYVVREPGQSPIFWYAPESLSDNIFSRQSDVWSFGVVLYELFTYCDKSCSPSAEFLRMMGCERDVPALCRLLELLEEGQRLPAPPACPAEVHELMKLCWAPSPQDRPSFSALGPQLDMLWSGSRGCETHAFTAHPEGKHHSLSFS
The experiment in a line: Detection of enzyme activity inhibition of JAK kinases (ULight-JAK substrate, Eu-antibody), JAK3. To be noted: ATP 10 μM, substrate 50 nM, 1 hour reaction at room temperature; read-out: JAK3 half-maximum inhibitory concentration (IC50). The protocol: as §1

Where two headings read alike, the source gives them in different places.

JAK1, sequence (P23458 whole entry): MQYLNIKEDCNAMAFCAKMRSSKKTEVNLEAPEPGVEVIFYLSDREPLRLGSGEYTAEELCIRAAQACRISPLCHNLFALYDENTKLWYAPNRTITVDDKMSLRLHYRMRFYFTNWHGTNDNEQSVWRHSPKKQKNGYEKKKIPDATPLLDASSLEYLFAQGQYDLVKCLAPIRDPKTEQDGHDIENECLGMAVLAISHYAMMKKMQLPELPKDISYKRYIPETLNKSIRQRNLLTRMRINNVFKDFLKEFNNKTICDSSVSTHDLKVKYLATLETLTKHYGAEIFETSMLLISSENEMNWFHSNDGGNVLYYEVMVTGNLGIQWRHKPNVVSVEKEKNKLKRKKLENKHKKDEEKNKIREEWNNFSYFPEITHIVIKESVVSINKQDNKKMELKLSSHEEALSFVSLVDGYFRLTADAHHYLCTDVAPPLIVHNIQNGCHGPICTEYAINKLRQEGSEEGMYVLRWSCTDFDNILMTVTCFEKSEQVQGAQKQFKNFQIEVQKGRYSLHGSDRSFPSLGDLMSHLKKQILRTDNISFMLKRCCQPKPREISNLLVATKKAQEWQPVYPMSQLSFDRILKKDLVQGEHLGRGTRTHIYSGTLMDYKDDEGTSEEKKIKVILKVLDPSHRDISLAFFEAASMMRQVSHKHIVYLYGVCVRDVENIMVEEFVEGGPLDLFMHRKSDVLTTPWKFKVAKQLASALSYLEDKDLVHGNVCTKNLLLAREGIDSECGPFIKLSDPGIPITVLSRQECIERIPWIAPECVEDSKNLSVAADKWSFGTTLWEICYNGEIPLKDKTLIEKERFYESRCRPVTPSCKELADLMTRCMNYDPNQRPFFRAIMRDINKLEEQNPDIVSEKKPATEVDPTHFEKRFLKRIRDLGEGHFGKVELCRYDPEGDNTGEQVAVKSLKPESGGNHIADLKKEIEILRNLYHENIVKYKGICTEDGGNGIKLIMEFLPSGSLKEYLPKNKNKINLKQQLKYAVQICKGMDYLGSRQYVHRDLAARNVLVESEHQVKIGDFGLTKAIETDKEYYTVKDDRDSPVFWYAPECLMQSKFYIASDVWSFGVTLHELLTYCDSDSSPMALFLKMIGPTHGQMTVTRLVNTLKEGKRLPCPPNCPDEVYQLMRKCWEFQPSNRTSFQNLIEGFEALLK
Tyk2, sequence (P29597 whole entry): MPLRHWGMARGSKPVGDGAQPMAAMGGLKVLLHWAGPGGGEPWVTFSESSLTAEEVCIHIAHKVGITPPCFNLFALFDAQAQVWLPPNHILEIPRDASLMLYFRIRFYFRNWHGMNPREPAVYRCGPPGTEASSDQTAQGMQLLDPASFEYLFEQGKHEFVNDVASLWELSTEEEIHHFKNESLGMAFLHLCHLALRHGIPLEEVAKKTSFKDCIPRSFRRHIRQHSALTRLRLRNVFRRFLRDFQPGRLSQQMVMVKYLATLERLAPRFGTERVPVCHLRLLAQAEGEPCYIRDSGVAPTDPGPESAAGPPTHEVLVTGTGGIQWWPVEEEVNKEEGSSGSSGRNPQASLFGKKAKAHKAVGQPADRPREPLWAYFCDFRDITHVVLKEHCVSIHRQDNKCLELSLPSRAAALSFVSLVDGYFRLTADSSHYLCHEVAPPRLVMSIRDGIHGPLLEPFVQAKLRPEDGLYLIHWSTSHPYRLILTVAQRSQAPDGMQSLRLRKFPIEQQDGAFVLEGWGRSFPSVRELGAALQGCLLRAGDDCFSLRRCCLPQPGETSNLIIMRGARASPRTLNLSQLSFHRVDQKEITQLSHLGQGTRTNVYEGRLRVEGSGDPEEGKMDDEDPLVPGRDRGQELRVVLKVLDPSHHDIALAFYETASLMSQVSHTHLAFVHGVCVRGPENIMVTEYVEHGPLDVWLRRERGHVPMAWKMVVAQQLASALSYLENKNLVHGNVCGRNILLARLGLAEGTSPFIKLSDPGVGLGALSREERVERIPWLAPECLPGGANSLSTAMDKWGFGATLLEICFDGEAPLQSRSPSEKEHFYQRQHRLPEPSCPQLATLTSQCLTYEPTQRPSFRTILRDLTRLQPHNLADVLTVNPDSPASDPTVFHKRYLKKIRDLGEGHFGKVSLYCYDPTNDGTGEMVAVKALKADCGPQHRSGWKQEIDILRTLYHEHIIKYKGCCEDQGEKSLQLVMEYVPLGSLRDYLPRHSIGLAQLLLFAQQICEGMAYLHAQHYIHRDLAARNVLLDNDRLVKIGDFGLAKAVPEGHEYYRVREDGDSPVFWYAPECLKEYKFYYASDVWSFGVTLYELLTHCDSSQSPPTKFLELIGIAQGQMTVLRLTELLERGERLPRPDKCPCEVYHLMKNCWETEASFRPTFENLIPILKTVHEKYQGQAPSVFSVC
JAK2, sequence (O60674 whole entry): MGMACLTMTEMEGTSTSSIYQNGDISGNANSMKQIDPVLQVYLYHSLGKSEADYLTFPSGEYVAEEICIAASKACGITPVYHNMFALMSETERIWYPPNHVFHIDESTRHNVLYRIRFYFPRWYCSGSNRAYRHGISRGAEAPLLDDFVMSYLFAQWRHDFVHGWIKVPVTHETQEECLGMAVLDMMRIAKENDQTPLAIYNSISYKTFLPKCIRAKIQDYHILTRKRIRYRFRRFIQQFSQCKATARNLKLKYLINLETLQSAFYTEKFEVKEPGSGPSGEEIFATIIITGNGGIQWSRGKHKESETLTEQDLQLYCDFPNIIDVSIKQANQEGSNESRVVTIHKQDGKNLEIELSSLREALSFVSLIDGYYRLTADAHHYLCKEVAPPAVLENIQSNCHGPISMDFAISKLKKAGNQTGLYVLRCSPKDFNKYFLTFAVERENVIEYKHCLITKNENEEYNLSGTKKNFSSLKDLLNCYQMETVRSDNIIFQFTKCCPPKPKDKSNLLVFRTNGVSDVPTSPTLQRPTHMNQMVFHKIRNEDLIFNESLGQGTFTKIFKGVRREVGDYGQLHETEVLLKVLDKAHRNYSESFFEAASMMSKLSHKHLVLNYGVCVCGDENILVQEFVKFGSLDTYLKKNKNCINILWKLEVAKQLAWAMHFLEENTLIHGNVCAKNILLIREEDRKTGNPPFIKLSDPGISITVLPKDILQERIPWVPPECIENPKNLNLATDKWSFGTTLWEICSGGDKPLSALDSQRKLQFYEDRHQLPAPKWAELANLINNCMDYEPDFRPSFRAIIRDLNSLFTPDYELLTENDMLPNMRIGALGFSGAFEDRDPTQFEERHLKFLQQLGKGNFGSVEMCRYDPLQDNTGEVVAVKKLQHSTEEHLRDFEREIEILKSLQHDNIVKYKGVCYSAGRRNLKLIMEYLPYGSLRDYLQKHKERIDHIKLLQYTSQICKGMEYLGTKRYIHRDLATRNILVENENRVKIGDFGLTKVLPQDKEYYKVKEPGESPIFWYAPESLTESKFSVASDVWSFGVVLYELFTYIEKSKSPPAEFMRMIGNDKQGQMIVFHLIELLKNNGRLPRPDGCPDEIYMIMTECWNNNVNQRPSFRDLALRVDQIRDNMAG

As to `CC(CO)c1ccc(Nc2nccc(-c3cnn(C4(CC#N)CN(C(=O)[C@@H]5CC5(F)F)C4)c3)n2)cn1` (stereo partly drawn) [TDM-180990, 2-(1-((S)-2,2-difluorocyclopropane-1-carbonyl)-3-(4-(2-((6-(1-hydroxypropan-2-yl)pyridine-3-yl)amino)pyrimidin-4-yl)-1H-pyrazol-1-yl)azetidin-3-yl)acetonitrile], the IC50 in assay [1] was 0.112 µM; in assay [2] it was 0.224 µM.

As for “(S)-4-((4-(1-(3-(cyanomethyl)-1-(2,2-difluorocyclopropane-1-carbonyl)azetidin-3-yl)-1H-pyrrol-3-yi)pyrimidin-2-yl)amino)-N-ethyl-2-methylbenzamide [TDM-180978]”, the IC50 in assay [1] (listed as TDM-18097) is about 0.01 µM; in assay [1], 0.011 µM; in assay [2] (listed as TDM-18097) it was about 0.01 µM; in assay [2], 0.007 µM; in assay [3] (listed as TDM-18097), about 0.01 µM; in assay [3] it was 0.012 µM. Besides, in assay [4], the IC50 is 0.28 µM.

For the compound `Cc1cc(Nc2nccc(-c3ccn(C4(CC#N)CN(C(=O)[C@@H]5CC5(F)F)C4)c3)n2)cnc1C(N)=O` [TDM-180975, (S)-5-((4-(1-(3-(cyanomethyl)-1-(2,2-difluorocyclopropane-1-carbonyl)azetidin-3-yl)-1H-pyrrol-3-yl)pyrimidin-2-yl)amino)-3-methylpyridinolineamide], the IC50 in assay [1] is 0.008 µM; in assay [2] it was 0.012 µM; in assay [3] it was 0.007 µM; in assay [4], 0.674 µM.

Regarding `CCNC(=O)c1ccc(Nc2nccc(-c3cnn(C4(CC#N)CN(C(=O)[C@@H]5CC5(F)F)C4)c3)n2)cc1` [TDM-180982, (S)-4-((4-(1-(3-(cyanomethyl)-1-(2,2-difluorocyclopropane-1-carbony)azetidn-3-yl)-1H-pyrazol-4-yl)pyrimidin-2-yl)amino)-N-ethylbenzamide], the IC50 is 0.019 µM in assay [1], 0.018 µM in assay [2], 0.022 µM in assay [3] and 1.3 µM in assay [4].

With `CC(CO)c1ccc(Nc2nccc(-c3ccn(C4(CC#N)CN(C(=O)[C@@H]5CC5(F)F)C4)c3)n2)cn1` (stereo partly drawn) [TDM-180996, 2-(1-((S)-2,2-difluorocyclopropane-1-carbonyl)-3-(3-(2-((6-(1-hydroxypropan-2-yl)pyridine-3-yl)amino)pyrimidin-4-yl)-1H-pyrrol-1-yl)azetidin-3-yl) acetonitrile], the IC50 is 0.039 µM in assay [1], 0.055 µM in assay [2], 0.038 µM in assay [3] and 0.843 µM in assay [4].

For `CNC(=O)c1ncc(Nc2nccc(-c3cnn(C4(CC#N)CN(C(=O)[C@@H]5CC5(F)F)C4)c3)n2)cc1C` [TDM-180985, (S)-5-((4-(1-(3-(cyanomethyl)-1-(2,2-difluorocyclopropane-1-carbonyl)azetidin-3-yl)-1H-pyrazol-4-yl)pyrimidin-2-yl)amino)-N,3-dimethylpyridinecarboxamide], the IC50 worked out at 0.021 µM in assay [1], 0.054 µM in assay [2], 0.064 µM in assay [3] and 2.37 µM in assay [4].

`CCNC(=O)c1ccc(Nc2nccc(-c3ccn(C4(CC#N)CN(C(=O)[C@@H]5CC5(F)F)C4)c3)n2)cc1` [TDM-180973, (S)-4-((4-(1-(3-(cyanomethyl)-1-(2,2-difluorocyclopropane-1-carbonyl)azetidin-3-yl)-1H-pyrrol-3-yl)pyrimidin-2-yl)amino)-N-ethylbenzamide]: the IC50 in assay [1] was found to be 0.007 µM; in assay [3], 0.009 µM; in assay [4], 0.443 µM.

As to `CCNC(=O)c1ccc(Nc2nccc(-c3cnn(C4(CC#N)CN(C(=O)[C@@H]5CC5(F)F)C4)c3)n2)cc1C` [TDM-180983], the IC50 in assay [1] amounted to 0.017 µM; in assay [2] it was 0.045 µM; in assay [3] it was 0.027 µM; in assay [4], 0.791 µM.

Regarding `Cc1cc(Nc2nccc(-c3cnn(C4(CC#N)CN(C(=O)[C@@H]5CC5(F)F)C4)c3)n2)cnc1C(N)=O` [TDM-180986, (S)-5-((4-(1-(3-(cyanomethyl)-1-(2,2-difluorocyclopropane-1-carbonyl)azetidin-3-yl)-1H-pyrazol-4-yl)pyrimidin2-yl)amino)-3-methylpyridinolineamide], the IC50 in assay [1] amounted to 0.056 µM; in assay [2], 0.125 µM; in assay [3], 0.052 µM; in assay [4], 3.06 µM.

On to `CNC(=O)c1ncc(Nc2nccc(-c3ccn(C4(CC#N)CN(C(=O)[C@@H]5CC5(F)F)C4)c3)n2)cc1C` [TDM-180976, (S)-5-((4-(1-(3-(cyanomethyl)-1-(2,2-difluorocyclopropane-1-carbonyl)azetidin-3-yl)-1H-pyrrol-3-yl)pyrimidin-2-yl)amino)-N,3-dimethylpyridinecarboxamide], for which the IC50 in assay [1] amounted to 0.009 µM; in assay [2], 0.009 µM; in assay [3] it was 0.013 µM; in assay [4], 0.599 µM.
